This test in a line: Cytotoxicity against human BEL-7402 cells after 72 hrs by SRB assay. The test is classed as cell-based. Particulars: Bel-7402, 72 h.

As usually defined, the IC50 is the concentration that gives 50% inhibition. Read a high IC50 as lower potency. `C=C(C)C(=O)O[C@@H]1C[C@H](CO)CC/C=C(/CO)C[C@H]2OC(=O)C(=C)[C@H]12` yielded an IC50 of 1.72 µM.

On to `C=C(C)C(=O)O[C@@H]1C[C@H](CO)CC/C=C(/C=O)C[C@H]2OC(=O)C(=C)[C@H]12`, for which the IC50 worked out at 1.5 µM.

The compound `C=C1C(=O)O[C@@H]2C/C(CO)=C\CC[C@@H](CO)C[C@@H](OC(=O)/C(C)=C\C)[C@@H]12` gave an IC50 of 3 µM.

(Values after ChEMBL document CHEMBL1142102, “Cytotoxic germacrane-type sesquiterpenes, pimarane-type diterpenes, and a naphthalene derivative from Wollastonia biflora” (J Nat Prod, 2007).)
